Measured values: patent publication US10711004B2 (Genentech, Inc., priority 2018, dated 2020)
pIC50: −log10 of the molar value. Read-outs that look alike come from different tables or passages of the source.

Biological target: human TRPA1 channel (Homo sapiens (Human), UniProt O75762)
Experiment: hTRPA1 CHO Ca2+ FLIPR Tetra assay, block of cinnamaldehyde induced calcium influx
Format: cell-based
Details: CHO cells expressing TRPA1, Hill coefficient fixed to 1.5
Summary of the method: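 IC50 values come from fixed-Hill fits of inhibition of cinnamaldehyde-induced (about EC50 level) calcium influx measured by FLIPR Tetra. Before agonist, TRPA1-expressing CHO cells loaded with calcium indicator were exposed to compound for 10 or 90 min at room temperature in HEPES-buffered HBSS, pH 7.4, with 0.02% BSA.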

[1] = read-out: hTRPA1 IC50 (10 min), compounds incubated 10 minutes at room temperature before cinnamaldehyde agonist
[2] = read-out: hTRPA1 IC50 (90 min), compounds incubated 90 minutes at room temperature before cinnamaldehyde agonist

Sequence of human TRPA1 channel (O75762 whole entry): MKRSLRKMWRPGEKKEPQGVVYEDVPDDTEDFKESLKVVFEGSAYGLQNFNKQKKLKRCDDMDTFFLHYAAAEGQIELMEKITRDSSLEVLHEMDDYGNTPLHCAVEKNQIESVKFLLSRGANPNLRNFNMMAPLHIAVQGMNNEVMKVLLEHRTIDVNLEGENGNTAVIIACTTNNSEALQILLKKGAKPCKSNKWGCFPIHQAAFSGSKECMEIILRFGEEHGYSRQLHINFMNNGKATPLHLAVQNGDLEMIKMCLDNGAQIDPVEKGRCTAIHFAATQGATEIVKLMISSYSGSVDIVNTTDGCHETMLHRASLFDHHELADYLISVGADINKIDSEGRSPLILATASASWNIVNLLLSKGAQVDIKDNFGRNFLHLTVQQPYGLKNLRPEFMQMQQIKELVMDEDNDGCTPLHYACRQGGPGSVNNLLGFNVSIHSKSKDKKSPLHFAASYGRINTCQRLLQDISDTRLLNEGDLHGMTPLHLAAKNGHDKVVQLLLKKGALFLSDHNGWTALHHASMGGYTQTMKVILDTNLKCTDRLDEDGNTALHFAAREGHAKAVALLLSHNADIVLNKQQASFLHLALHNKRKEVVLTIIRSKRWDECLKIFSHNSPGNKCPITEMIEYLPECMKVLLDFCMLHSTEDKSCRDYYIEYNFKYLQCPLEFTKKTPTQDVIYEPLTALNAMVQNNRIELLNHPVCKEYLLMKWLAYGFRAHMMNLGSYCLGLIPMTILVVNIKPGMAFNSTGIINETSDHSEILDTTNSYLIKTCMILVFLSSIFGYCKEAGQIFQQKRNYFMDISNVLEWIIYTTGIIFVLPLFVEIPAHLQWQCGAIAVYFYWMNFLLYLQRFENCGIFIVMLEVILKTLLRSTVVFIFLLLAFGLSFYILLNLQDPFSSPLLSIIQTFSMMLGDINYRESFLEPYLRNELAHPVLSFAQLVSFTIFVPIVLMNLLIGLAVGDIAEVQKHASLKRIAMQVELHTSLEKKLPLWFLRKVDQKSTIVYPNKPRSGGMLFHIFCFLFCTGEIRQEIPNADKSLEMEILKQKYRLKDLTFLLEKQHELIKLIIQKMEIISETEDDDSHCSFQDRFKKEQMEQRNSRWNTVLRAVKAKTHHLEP

SMILES | pIC50 [1] | pIC50 [2]
COc1ccc(C2=C[C@@H]3[C@H](C2)[C@H]3c2noc(Cn3cnc4ncn(C)c4c3=O)n2)cc1 [Example Compound 118, 1-((3-((1S,5S,6R)-3-(4-methoxyphenyl)bicyclo[3.1.0]hex-2-en-6-yl)-1,2,4-oxadiazol-5-yl)methyl)-7-methyl-1,7-dihydro-6H-purin-6-one] | 7.38 | 7.82
COc1ccc(C2=C[C@H]3[C@@H](C2)[C@@H]3c2noc(Cn3cnc4ncn(C)c4c3=O)n2)cc1 [Example Compound 119, 1-((3-((1R,5R,6S)-3-(4-methoxyphenyl)bicyclo[3.1.0]hex-2-en-6-yl)-1,2,4-oxadiazol-5-yl)methyl)-7-methyl-1,7-dihydro-6H-purin-6-one] | 7.58 | 7.80
Cn1cnc2ncn(Cc3nc([C@H]4[C@@H]5CN(c6cc7ccccc7cn6)C[C@@H]54)no3)c(=O)c21 [Example Compound 120, 1-((3-((1R,5S,6r)-3-(isoquinolin-3-yl)-3-azabicyclo[3.1.0]hexan-6-yl)-1,2,4-oxadiazol-5-yl)methyl)-7-methyl-1,7-dihydro-6H-purin-6-one] | 7.04 | 7.09
O=c1c2c(Cl)ccnc2ncn1Cc1nc([C@H]2C[C@](F)(c3ccc(Cl)cc3)C2)no1 [Example Compound 121, 5-chloro-3-((3-((1s,3s)-3-(4-chlorophenyl)-3-fluorocyclobutyl)-1,2,4-oxadiazol-5-yl)methyl)pyrido[2,3-d]pyrimidin-4(3H)-one] | 7.88 | 7.66
Cn1cnc2ncn(Cc3nc([C@H]4[C@@H]5C=C(c6ccc(Cl)cn6)C[C@@H]54)no3)c(=O)c21 [Example Compound 122, 1-((3-((1S,5S,6R)-3-(5-chloropyridin-2-yl)bicyclo[3.1.0]hex-2-en-6-yl)-1,2,4-oxadiazol-5-yl)methyl)-7-methyl-1,7-dihydro-6H-purin-6-one] | 6.85 | 6.89
Cn1cnc2ncn(Cc3nc([C@@H]4[C@H]5C=C(c6ccc(Cl)cn6)C[C@H]54)no3)c(=O)c21 [Example Compound 123, 1-((3-((1R,5R,6S)-3-(5-chloropyridin-2-yl)bicyclo[3.1.0]hex-2-en-6-yl)-1,2,4-oxadiazol-5-yl)methyl)-7-methyl-1,7-dihydro-6H-purin-6-one] | 6.53 | 6.44
Cn1cnc2ncn(Cc3nc([C@@H]4[C@H]5C=C(c6ccc(F)cc6)C[C@H]54)no3)c(=O)c21 [Example Compound 124, 1-((3-((1R,5R,6S)-3-(4-fluorophenyl)bicyclo[3.1.0]hex-2-en-6-yl)-1,2,4-oxadiazol-5-yl)methyl)-7-methyl-1,7-dihydro-6H-purin-6-one] | 7.96 | 8.12
Cn1cnc2ncn(Cc3nc([C@H]4[C@@H]5C=C(c6ccc(F)cc6)C[C@@H]54)no3)c(=O)c21 [Example Compound 125, 1-((3-((1S,5S,6R)-3-(4-fluorophenyl)bicyclo[3.1.0]hex-2-en-6-yl)-1,2,4-oxadiazol-5-yl)methyl)-7-methyl-1,7-dihydro-6H-purin-6-one] | 8.13 | 8.52
Cn1cnc2ncn(Cc3nc([C@H]4[C@@H]5C=C(c6ccncc6)C[C@@H]54)no3)c(=O)c21 [Example Compound 126, 7-methyl-1-((3-((1S,5S,6R)-3-(pyridin-4-yl)bicyclo[3.1.0]hex-2-en-6-yl)-1,2,4-oxadiazol-5-yl)methyl)-1,7-dihydro-6H-purin-6-one] | 6.72 | 7.02
Cn1cnc2ncn(Cc3nc([C@@H]4[C@H]5C=C(c6ccncc6)C[C@H]54)no3)c(=O)c21 [Example Compound 127, 7-methyl-1-((3-((1R,5R,6S)-3-(pyridin-4-yl)bicyclo[3.1.0]hex-2-en-6-yl)-1,2,4-oxadiazol-5-yl)methyl)-1,7-dihydro-6H-purin-6-one] | 6.89 | 7.07
Cn1cnc2ncn(Cc3nc([C@@H]4[C@H]5C=C(c6ccccn6)C[C@H]54)no3)c(=O)c21 [Example Compound 128, 7-methyl-1-((3-((1R,5R,6S)-3-(pyridin-2-yl)bicyclo[3.1.0]hex-2-en-6-yl)-1,2,4-oxadiazol-5-yl)methyl)-1,7-dihydro-6H-purin-6-one] | 6.93 | 7.11
Cn1cnc2ncn(Cc3nc([C@H]4[C@@H]5C=C(c6ccccn6)C[C@@H]54)no3)c(=O)c21 [Example Compound 129, 7-methyl-1-((3-((1S,5S,6R)-3-(pyridin-2-yl)bicyclo[3.1.0]hex-2-en-6-yl)-1,2,4-oxadiazol-5-yl)methyl)-1,7-dihydro-6H-purin-6-one] | 6.68 | 6.68
Cn1nnc2ncn(Cc3nc([C@H]4[C@@H]5CN(c6cc(Cl)ccn6)C[C@@H]54)no3)c(=O)c21 [Example Compound 130, 6-((3-((1R,5S,6r)-3-(4-chloropyridin-2-yl)-3-azabicyclo[3.1.0]hexan-6-yl)-1,2,4-oxadiazol-5-yl)methyl)-1-methyl-1,6-dihydro-7H-[1,2,3]triazolo[4,5-d]pyrimidin-7-one] | 7.13 | 7.36
Cn1cnc2ncn(Cc3nc([C@H]4[C@@H]5CN(c6ccncc6F)C[C@@H]54)no3)c(=O)c21 [Example Compound 131, 1-((3-((1R,5S,6r)-3-(3-fluoropyridin-4-yl)-3-azabicyclo[3.1.0]hexan-6-yl)-1,2,4-oxadiazol-5-yl)methyl)-7-methyl-1,7-dihydro-6H-purin-6-one] | 6.42 | 6.96
Cn1cnc2ncn(Cc3nc([C@H]4[C@@H]5CN(c6ncccc6F)C[C@@H]54)no3)c(=O)c21 [Example Compound 132, 1-((3-((1R,5S,6r)-3-(3-fluoropyridin-2-yl)-3-azabicyclo[3.1.0]hexan-6-yl)-1,2,4-oxadiazol-5-yl)methyl)-7-methyl-1,7-dihydro-6H-purin-6-one] | 6.84 | 6.96
Cn1cnc2ncn(Cc3nc([C@H]4[C@@H]5C=C(c6cccnc6)C[C@@H]54)no3)c(=O)c21 [Example Compound 133, 7-methyl-1-((3-((1S,5S,6R)-3-(pyridin-3-yl)bicyclo[3.1.0]hex-2-en-6-yl)-1,2,4-oxadiazol-5-yl)methyl)-1,7-dihydro-6H-purin-6-one] | 6.75 | 6.80
Cn1cnc2ncn(Cc3nc([C@@H]4[C@H]5C=C(c6cccnc6)C[C@H]54)no3)c(=O)c21 [Example Compound 134, 7-methyl-1-((3-((1R,5R,6S)-3-(pyridin-3-yl)bicyclo[3.1.0]hex-2-en-6-yl)-1,2,4-oxadiazol-5-yl)methyl)-1,7-dihydro-6H-purin-6-one] | 6.46 | 6.36
Cn1cnc2ncn(Cc3nc([C@H]4[C@@H]5C=C(c6ccc7ccncc7c6)C[C@@H]54)no3)c(=O)c21 [Example Compound 135, 1-((3-((1S,5S,6R)-3-(isoquinolin-7-yl)bicyclo[3.1.0]hex-2-en-6-yl)-1,2,4-oxadiazol-5-yl)methyl)-7-methyl-1,7-dihydro-6H-purin-6-one] | 7.23 | 7.32
Cn1cnc2ncn(Cc3nc([C@@H]4[C@H]5C=C(c6ccc7ccncc7c6)C[C@H]54)no3)c(=O)c21 [Example Compound 136, 1-((3-((1R,5R,6S)-3-(isoquinolin-7-yl)bicyclo[3.1.0]hex-2-en-6-yl)-1,2,4-oxadiazol-5-yl)methyl)-7-methyl-1,7-dihydro-6H-purin-6-one] | 7.78 | 8.12
Cn1cnc2ncn(Cc3nc([C@H]4[C@@H]5CN(c6ccc7c(c6)CCCC7)C[C@@H]54)no3)c(=O)c21 [Example Compound 136] | 6.16 | –
Cc1nn(C)c2ncn(Cc3nc([C@H]4[C@@H]5CN(c6cc(Cl)ccn6)C[C@@H]54)no3)c(=O)c12 [Example Compound 137, 5-((3-((1R,5S,6r)-3-(4-chloropyridin-2-yl)-3-azabicyclo[3.1.0]hexan-6-yl)-1,2,4-oxadiazol-5-yl)methyl)-1,3-dimethyl-1,5-dihydro-4H-pyrazolo[3,4-d]pyrimidin-4-one] | 7.23 | 7.37
Cc1cnn2ncn(Cc3nc([C@H]4[C@@H]5CN(c6cc(Cl)ccn6)C[C@@H]54)no3)c(=O)c12 [Example Compound 138, 3-((3-((1R,5S,6r)-3-(4-chloropyridin-2-yl)-3-azabicyclo[3.1.0]hexan-6-yl)-1,2,4-oxadiazol-5-yl)methyl)-5-methylpyrazolo[5,1-f][1,2,4]triazin-4(3H)-one] | 7.82 | 8.26
Cn1nnc2ncn(Cc3nc([C@H]4[C@@H]5CN(c6cccc(Cl)c6)C[C@@H]54)no3)c(=O)c21 [Example Compound 139, 6-((3-((1R,5S,6r)-3-(3-chlorophenyl)-3-azabicyclo[3.1.0]hexan-6-yl)-1,2,4-oxadiazol-5-yl)methyl)-1-methyl-1,6-dihydro-7H-[1,2,3]triazolo[4,5-d]pyrimidin-7-one] | 7.97 | 8.44
Cc1ccc(N2C[C@@H]3[C@H](C2)[C@H]3c2noc(Cn3cnc4ncn(C)c4c3=O)n2)nc1 [Example Compound 140, 7-methyl-1-((3-((1R,5S,6r)-3-(5-methylpyridin-2-yl)-3-azabicyclo[3.1.0]hexan-6-yl)-1,2,4-oxadiazol-5-yl)methyl)-1,7-dihydro-6H-purin-6-one] | 6.65 | 6.77
Cn1cnc2ncn(Cc3nc([C@H]4[C@@H]5C=C(c6ccc(Cl)cc6)C[C@@H]54)no3)c(=O)c21 [Example Compound 141, 1-((3-((1S,5S,6R)-3-(4-chlorophenyl)bicyclo[3.1.0]hex-2-en-6-yl)-1,2,4-oxadiazol-5-yl)methyl)-7-methyl-1,7-dihydro-6H-purin-6-one] | 8.01 | 8.29
